Test [1] in a line: Selectivity interaction (KinomeScan (DiscoverX)) EUB0000595a CDPK1. Particulars: at 10 µM.
Test [2] concerns the target T1, Serine/threonine-protein kinase TBK1 (Homo sapiens) (UniProt Q9UHD2).
T1 sequence (whole entry): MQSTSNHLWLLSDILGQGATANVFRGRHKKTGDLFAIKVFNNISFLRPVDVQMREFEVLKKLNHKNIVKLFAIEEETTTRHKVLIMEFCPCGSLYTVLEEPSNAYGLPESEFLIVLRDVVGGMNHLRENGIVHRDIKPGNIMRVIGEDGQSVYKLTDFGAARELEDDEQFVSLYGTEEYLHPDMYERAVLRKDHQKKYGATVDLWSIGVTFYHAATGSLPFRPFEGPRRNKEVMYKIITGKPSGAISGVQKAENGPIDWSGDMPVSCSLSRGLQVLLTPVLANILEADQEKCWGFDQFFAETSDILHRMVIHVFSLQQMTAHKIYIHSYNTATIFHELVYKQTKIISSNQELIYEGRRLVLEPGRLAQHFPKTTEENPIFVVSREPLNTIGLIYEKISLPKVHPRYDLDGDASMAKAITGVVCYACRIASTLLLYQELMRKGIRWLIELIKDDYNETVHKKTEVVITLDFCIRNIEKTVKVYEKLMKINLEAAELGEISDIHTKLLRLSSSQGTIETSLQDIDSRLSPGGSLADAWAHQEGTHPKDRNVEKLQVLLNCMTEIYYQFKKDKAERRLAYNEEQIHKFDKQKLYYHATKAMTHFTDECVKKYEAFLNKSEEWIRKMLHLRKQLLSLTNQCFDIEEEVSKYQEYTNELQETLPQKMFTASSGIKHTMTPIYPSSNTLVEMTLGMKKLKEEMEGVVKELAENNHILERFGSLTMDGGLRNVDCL
In words: Selectivity interaction (KinomeScan (DiscoverX)) EUB0000695a TBK1. As to conditions: at 100 nM.

In test [3] the target is T2, Serine/threonine-protein kinase haspin (Homo sapiens) (UniProt Q8TF76).
T2 sequence (whole entry): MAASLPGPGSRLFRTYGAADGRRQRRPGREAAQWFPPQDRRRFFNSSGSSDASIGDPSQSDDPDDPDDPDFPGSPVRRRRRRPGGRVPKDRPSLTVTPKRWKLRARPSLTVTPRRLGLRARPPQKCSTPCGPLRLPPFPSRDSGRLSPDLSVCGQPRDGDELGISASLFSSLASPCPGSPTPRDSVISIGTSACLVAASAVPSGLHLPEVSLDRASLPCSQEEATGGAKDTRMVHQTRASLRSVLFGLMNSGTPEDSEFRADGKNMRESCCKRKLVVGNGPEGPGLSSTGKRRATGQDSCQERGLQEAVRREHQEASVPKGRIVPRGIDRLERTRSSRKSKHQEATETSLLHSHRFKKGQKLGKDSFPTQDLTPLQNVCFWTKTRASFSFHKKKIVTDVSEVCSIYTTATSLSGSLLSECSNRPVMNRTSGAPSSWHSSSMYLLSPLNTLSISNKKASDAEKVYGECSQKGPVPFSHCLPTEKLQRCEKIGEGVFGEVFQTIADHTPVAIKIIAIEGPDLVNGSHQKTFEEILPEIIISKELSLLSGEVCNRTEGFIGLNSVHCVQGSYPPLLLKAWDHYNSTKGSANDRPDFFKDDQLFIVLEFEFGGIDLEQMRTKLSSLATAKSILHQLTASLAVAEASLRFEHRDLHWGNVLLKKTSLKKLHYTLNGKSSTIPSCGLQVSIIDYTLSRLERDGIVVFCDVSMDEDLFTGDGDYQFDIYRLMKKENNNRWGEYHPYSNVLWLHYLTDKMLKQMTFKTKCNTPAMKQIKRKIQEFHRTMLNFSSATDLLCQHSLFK
In words: Selectivity interaction (KinomeScan (DiscoverX)) EUB0000666a GSG2. As to conditions: at 10 µM.

Test [4] addresses Ribosomal protein S6 kinase alpha-2 (Homo sapiens) (UniProt Q15349). In words: Selectivity interaction (SelectScreen profiling (Invitrogen)) EUB0000607a RPS6KA2. Particulars: at 2 µM.
Test [5] deals with Tyrosine-protein kinase Srms (Homo sapiens) (UniProt Q9H3Y6). Nature of the test: Selectivity interaction (SelectScreen profiling (Invitrogen)) EUB0000607a SRMS. As to conditions: at 2 µM.
Test [6] addresses Dual specificity protein kinase CLK1 (Homo sapiens, UniProt P49759). Nature of the test: Selectivity interaction (Enzymatic assay) EUB0001550a CLK1.
In test [7] the target is Serine/threonine-protein kinase Chk1 (Homo sapiens, UniProt O14757). Nature of the test: Selectivity interaction (Enzyme panel (AstraZeneca, AlphaScreen, functional assay)) EUB0000621a CHEK1. Background: Bead proximity is the source of the signal in Alpha formats.
In test [8] the target is Mitogen-activated protein kinase kinase kinase kinase 1 (Homo sapiens) (UniProt Q92918). In words: Selectivity interaction (KinomeScan (DiscoverX)) EUB0000045b MAP4K1.
Test [9] concerns the target Myosin-IIIa (Homo sapiens) (UniProt Q8NEV4). In words: Selectivity interaction (Ambit KINOMEscan and KiNATiv profiling in Jurkat cells) EUB0000090b MYO3A. The test is classed as cell-based. As to conditions: at 1 µM.
Test [10] concerns the target T3, Muscarinic acetylcholine receptor M1 (Homo sapiens) (UniProt P11229).
T3 sequence (whole entry): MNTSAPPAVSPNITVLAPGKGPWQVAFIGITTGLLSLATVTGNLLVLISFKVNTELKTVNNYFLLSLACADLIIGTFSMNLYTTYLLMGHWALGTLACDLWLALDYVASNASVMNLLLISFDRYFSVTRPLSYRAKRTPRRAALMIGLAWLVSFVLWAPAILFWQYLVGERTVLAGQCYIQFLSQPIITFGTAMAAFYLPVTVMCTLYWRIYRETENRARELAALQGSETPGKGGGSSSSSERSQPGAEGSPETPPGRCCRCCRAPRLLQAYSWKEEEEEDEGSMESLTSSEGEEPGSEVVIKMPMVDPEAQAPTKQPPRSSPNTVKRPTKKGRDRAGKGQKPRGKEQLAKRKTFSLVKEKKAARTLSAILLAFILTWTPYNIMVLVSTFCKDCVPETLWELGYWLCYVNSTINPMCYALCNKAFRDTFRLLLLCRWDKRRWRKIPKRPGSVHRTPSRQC
In words: Selectivity interaction (Panel of kinases, GPCRs, ion channels and transporters (enzymatic assay)) EUB0000223bCl CHRM1.

The target in the next test is Misshapen-like kinase 1 (Homo sapiens, UniProt Q8N4C8). Nature of the test: Selectivity interaction (KinomeScan (DiscoverX)) EUB0000655a MINK1. Particulars: at 10 µM.
Test [11] concerns the target Vascular endothelial growth factor receptor 3 (Homo sapiens, UniProt P35916). In words: Selectivity interaction (KinomeScan (DiscoverX)) EUB0000092b FLT4. As to conditions: at 10 µM.
In test [12] the test system is Phosphatidylinositol 4,5-bisphosphate 3-kinase catalytic subunit alpha isoform (Homo sapiens), P42336 [I800L]. Particulars: at 10 µM.
Test [13] concerns the target Cyclin-dependent kinase 19 (Homo sapiens) (UniProt Q9BWU1). Nature of the test: Selectivity interaction (KinomeScan (DiscoverX)) EUB0000229b CDK19. Particulars: at 10 µM.

Chain of Mitogen-activated protein kinase kinase kinase kinase 1 (Homo sapiens) (Q92918 whole entry, looked up): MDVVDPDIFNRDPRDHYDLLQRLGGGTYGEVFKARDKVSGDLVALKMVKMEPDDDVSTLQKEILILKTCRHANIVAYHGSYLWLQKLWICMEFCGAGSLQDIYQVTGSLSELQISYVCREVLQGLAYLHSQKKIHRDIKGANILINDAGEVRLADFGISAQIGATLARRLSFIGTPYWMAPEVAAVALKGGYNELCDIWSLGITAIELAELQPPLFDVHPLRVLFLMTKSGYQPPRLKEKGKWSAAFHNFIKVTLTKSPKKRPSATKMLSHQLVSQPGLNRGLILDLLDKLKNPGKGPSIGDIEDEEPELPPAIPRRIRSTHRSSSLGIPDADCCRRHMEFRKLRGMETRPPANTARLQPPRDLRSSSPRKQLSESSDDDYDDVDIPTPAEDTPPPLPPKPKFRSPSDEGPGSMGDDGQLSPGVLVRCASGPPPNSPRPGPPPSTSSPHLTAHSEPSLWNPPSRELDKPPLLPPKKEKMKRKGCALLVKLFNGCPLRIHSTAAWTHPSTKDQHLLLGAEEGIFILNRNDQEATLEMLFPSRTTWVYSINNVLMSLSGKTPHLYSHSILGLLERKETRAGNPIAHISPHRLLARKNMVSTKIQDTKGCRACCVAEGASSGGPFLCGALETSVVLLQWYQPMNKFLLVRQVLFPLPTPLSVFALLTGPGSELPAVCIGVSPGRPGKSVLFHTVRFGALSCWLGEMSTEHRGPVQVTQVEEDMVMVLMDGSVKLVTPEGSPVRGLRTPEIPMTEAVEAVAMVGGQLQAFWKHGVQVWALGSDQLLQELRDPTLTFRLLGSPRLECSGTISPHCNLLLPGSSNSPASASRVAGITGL
Chain of Vascular endothelial growth factor receptor 3 (P35916 whole entry, canonical isoform): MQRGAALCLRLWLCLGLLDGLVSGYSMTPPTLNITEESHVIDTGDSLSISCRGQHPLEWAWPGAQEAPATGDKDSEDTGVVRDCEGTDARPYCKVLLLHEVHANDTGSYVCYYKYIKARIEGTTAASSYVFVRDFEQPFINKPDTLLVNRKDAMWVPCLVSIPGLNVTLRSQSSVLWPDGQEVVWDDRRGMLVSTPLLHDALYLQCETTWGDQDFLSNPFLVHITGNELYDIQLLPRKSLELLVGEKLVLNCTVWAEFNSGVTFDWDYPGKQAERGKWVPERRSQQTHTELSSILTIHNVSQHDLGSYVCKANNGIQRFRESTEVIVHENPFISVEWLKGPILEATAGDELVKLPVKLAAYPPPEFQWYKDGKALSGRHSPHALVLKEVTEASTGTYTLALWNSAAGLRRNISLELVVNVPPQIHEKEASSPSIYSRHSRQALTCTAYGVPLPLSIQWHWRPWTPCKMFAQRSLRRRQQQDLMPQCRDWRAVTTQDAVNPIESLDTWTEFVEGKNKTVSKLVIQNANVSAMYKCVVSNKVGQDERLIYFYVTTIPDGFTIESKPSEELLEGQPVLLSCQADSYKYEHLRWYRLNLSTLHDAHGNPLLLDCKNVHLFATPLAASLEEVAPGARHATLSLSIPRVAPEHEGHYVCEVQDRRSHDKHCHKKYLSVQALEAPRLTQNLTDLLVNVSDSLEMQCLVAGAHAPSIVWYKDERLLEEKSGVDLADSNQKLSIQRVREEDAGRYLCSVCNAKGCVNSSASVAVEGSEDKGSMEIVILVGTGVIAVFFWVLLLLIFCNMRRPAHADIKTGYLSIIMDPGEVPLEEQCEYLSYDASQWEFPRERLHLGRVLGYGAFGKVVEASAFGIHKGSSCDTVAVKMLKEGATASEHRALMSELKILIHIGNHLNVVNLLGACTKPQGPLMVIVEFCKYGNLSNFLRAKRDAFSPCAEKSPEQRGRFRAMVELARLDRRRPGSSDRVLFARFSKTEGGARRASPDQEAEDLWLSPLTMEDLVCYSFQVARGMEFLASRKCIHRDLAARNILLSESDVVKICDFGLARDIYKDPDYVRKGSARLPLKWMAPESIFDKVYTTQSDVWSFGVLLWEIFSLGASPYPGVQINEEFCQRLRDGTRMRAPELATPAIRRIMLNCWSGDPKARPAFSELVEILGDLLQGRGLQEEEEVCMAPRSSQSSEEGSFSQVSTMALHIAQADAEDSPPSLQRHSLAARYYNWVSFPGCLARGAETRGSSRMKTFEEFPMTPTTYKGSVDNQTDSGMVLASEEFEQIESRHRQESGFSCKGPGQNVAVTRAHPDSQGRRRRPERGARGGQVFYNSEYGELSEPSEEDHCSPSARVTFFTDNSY
Chain of Tyrosine-protein kinase Srms (Homo sapiens) (Q9H3Y6 whole entry): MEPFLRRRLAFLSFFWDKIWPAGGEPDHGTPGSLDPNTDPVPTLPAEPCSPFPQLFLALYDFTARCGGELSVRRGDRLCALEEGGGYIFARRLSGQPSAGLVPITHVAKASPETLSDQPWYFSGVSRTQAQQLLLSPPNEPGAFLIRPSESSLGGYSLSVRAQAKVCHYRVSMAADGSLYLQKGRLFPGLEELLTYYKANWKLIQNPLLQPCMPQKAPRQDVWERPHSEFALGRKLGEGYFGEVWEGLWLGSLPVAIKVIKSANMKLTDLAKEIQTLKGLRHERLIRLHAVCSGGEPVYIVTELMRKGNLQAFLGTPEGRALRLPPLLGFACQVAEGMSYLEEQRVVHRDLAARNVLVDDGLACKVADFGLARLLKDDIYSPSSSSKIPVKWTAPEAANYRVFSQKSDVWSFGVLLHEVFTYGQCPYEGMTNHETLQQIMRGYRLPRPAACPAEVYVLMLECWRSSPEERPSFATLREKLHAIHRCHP
Chain of Myosin-IIIa (Homo sapiens) (Q8NEV4 whole entry): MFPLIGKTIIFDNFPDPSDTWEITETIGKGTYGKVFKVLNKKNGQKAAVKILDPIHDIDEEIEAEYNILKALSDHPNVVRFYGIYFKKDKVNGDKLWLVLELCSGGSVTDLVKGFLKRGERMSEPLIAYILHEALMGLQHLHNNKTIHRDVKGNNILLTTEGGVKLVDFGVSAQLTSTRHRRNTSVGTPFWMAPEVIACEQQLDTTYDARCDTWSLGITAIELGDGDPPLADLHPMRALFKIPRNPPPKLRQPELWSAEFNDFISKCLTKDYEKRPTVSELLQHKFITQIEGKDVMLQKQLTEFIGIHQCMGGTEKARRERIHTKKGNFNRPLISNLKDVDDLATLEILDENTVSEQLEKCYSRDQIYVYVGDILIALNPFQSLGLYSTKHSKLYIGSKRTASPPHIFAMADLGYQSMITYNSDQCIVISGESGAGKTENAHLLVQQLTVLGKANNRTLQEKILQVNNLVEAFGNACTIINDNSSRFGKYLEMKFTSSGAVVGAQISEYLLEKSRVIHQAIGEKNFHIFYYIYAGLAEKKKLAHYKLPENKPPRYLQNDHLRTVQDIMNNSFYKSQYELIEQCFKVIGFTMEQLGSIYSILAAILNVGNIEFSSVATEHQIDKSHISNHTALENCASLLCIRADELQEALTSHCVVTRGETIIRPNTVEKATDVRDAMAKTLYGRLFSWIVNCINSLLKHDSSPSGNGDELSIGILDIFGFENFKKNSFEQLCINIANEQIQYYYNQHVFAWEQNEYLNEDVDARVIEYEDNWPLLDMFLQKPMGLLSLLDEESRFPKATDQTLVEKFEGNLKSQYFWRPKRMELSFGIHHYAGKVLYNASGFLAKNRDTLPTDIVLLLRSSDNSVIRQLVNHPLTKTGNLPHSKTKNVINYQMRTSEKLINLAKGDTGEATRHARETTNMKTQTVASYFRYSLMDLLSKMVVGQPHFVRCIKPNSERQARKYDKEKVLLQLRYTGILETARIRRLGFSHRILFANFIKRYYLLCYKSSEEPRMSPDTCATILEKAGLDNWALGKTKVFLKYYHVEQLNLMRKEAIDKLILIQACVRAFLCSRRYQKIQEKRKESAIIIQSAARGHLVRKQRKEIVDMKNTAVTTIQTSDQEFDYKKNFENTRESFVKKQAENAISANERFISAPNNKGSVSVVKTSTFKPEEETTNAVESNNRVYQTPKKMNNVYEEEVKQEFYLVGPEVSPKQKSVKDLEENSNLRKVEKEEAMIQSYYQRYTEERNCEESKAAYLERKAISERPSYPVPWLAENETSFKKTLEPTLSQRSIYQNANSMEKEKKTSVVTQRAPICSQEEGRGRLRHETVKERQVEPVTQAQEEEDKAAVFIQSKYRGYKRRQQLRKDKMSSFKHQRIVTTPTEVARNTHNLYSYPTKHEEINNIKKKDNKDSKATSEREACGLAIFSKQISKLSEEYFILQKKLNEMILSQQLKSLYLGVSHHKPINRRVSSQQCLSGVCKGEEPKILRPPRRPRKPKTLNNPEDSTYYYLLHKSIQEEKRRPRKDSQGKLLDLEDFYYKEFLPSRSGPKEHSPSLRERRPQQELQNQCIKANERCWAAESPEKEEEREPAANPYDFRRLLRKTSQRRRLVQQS
Chain of Serine/threonine-protein kinase Chk1 (O14757 whole entry): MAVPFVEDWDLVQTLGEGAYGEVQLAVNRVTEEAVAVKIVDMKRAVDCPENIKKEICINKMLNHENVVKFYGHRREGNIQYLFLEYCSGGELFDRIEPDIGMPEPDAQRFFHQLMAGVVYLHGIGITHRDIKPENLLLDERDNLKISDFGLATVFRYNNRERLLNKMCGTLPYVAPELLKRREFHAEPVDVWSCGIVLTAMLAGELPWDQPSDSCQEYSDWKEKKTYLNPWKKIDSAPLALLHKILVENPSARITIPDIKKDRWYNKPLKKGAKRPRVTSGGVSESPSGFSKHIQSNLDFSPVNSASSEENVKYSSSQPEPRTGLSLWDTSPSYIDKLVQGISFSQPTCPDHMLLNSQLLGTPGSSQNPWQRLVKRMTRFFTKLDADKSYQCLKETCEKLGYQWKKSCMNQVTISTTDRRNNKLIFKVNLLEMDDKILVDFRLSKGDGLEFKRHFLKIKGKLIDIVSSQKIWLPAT

Turning to `COCC(=O)NC/C=C/c1ccc2ncnc(Nc3ccc(Oc4ccc(C)nc4)c(C)c3)c2c1` [CP-724714], the % of control in test [1] worked out at 25%. In test [2], `Cc1cc(F)c(C(=O)Nc2cccc(-c3nncn3C(C)C)n2)cc1-n1cnc(C2CC2)c1` registered a % of control of 90%. On to `O=C(NOC[C@H](O)CO)c1ccc(F)c(F)c1Nc1ccc(I)cc1F`, for which the % of control in [3] was found to be 100%. Take `CNC(=O)Nc1ccc(-c2nc(N3CC4CCC(C3)O4)c3cnn(C4CCC5(CC4)OCCO5)c3n2)cc1`: the % of inhibition was -1% in test [4] and 7% in test [5]. One may read the IC50 as the midpoint of a concentration-inhibition curve. A higher IC50 goes with a need for much substance. With `CN(C)CC#Cc1ccc2[nH]c3c(c2c1)-c1nc(N)ncc1CCC3`, in test [6], the IC50 was determined as 420 nM. In the case of `Cc1cc([C@@H](C)Nc2ccccc2C(=O)O)c2nc(N3CCOCC3)cc(=O)n2c1` [AZD-6482], in test [7], the IC50 was > 1 mM. As for `C=CC(=O)Nc1cc(-n2c(=O)ccc3cnc4ccc(-c5ccc(NS(C)(=O)=O)cc5)cc4c32)ccc1C`, the % of control worked out at 100% in [8] (at 1 µM) and 94% in [8] (at 10 µM). `CN(C)C/C=C/C(=O)Nc1ccc(C(=O)N2CCCC(Nc3ncc(Cl)c(-c4c[nH]c5ccccc45)n3)C2)cc1` (stereo not given) registered a % of control in [9] of 100%. As to `COc1cc(C(=O)N2CC[C@@H](O)[C@@H](N)C2)cc2nc(-c3cc4ccccc4n3CC3CC3)n(C)c12`, in test [10], the pXC50 is 5.3 M. `CN(C)CCOc1ccc(-c2nc(-c3ccncc3)c(-c3ccc4c(c3)CC/C4=N\O)[nH]2)cc1` gave a % of control on Misshapen-like kinase 1 of 6%. Consider `CCC(=O)N1CCN(c2ccc(-n3c(=O)ccc4cnc5ccc(-c6cnc7ccccc7c6)cc5c43)cc2C(F)(F)F)CC1`, for which the % of control in test [11] worked out at 74%; in test [12], 0%.

`COc1cc(N(C)c2ccnc3ccc(C(F)(F)F)cc23)cc(OC)c1OC`: in test [13], the % binding stood at 69%.

(Values after ChEMBL document CHEMBL5465560, “Selectivity Literature for EUbOPEN Chemogenomic Library” (2024).)
